Values of other authors as cited in US8329229B2, “Steam distillation of catmint plants” (E I du Pont de Nemours and Company, priority 2006, dated 2012).

System: insect
Conditions: see U.S. Ser. No. 05/112,166

For `CC1COC(=O)C2C(C)CCC12` (stereo not shown) [dihydronepetalactone], the insect repellency is listed as “exhibits insect repellency”.
